Experimental data taken from patent publication US20070021391A1, “Preventive/remedy for urinary disturbance” (priority 2003, published 2007).
“Also recorded” adds a separate entry of the source. Like-named read-outs stand apart in the source and are kept apart here.

What was measured:
[1] = system: Hartley male guinea pig, urethane anesthesia; assay: Urine flow dynamic parameters with oxybutynin and compound A (Example 6); format: in vivo; details: for Bladder volume, proportion for value before administration (%) / Maximum urine flow rate, proportion for value before administration (%) / Urination efficiency, proportion for value before administration (%): iv + oxybutynin 1 mg/kg, iv
Method: A Hartley male guinea pig with a body weight of about 500 g (Japan SLC Hamamatsu) was used. After urethane anesthesia (1.4 g/kg, i.p.), the medial incision of the lower abdomen was carried out, and the bladder was exposed. Two injection needles (20G) with which a polyethylene tube (PE-100, Becton Dickinson, Franklin Lakes, N.J., USA) was linked were inserted in the bladder, and one needle was used for injection of saline and another needle was used for measurement of the inner pressure of the bladder. Further, a cannula (PE-10, Becton Dickinson) for injection of phenylephrine was inserted in right common jugular vein. […] The amount of urine eliminated was measured by an electronic weighing machine (GX-400, A&D, Tokyo) and the inner pressure of the bladder was measured using a pressure transducer (AP641G, NIPPON KODEN Corporation, Tokyo). The analogue data of the weight of urine and the inner pressure of the bladder were inputted in a multi-channel data analyzer (MP-100A-CE, Biopac systems), and analyzed by a proprietary software (Acqknowledge 3.7.1, Biopac systems). The sampling interval of data was 0.1 sec and a low pass filter was applied to the data of discharge amount and urine flow rate at 0.5 Hz in order to remove noise. A delay time of 0.1 sec in weighing the urine was rectified, and the urine flow rate was determined by differentiating the value of discharge amount. The dynamic state parameter of the flow of urine below was measured. A bladder volume, the maximum urine flow rate, urination efficiency (=amount of urination/bladder volume). The effect of oxybutynin was analyzed by the paired t calibration and the concomitant use effect of the compound A was analyzed by Dunnett calibration.

[2] = system: Hartley male guinea pig, urethane anesthesia; assay: Pressure/flow study using guinea pig (Example 3); format: in vivo; details: for Amount of urination, proportion for value before administration (%) / At maximum urine flow rate Inner pressure of bladder, proportion for value before administration (%) / Maximum urine flow rate, proportion for value before administration (%): i.v.; for Bladder compliance, proportion for value before administration (%) / Bladder volume, proportion for value before administration (%): iv
Method: A Hartley male guinea pig of 5 weeks old (Japan SLC) was used. After urethane anesthesia, the medial incision of the lower abdomen was carried out, and the bladder was exposed. Two injection needles (20G) with which a polyethylene tube (PE-100) was linked were inserted in the bladder, and one needle was used for injection of saline and another needle was used for measurement of the inner pressure of the bladder. The injection of saline was continuously carried out at a rate of 18 mL/h using a syringe pump (SP-100S, JMS, and Hiroshima), the injection was stopped after intermittent urination was confirmed 3 times at minimum, and the saline in the bladder was removed by suction. Injection was started again, and the injection was stopped when the raise of the inner pressure of the bladder just before urination was confirmed. The amount of urine excreted was measured by an electronic weighing machine (HX-400, A&D, and Tokyo) and the inner pressure of the bladder was measured using a pressure transducer (AP641G, NIPPON KODEN Corporation). The analogue data of the weight of urine and the inner pressure of the bladder were inputted in a multi-channel data analyzer (MP-100A-CE, Biopac systems), and analyzed by a proprietary software (Acqknowledge, Biopac systems). The sampling interval of data was 0.1 second and a low pass filter was applied to the data of discharge amount and urine flow rate at 0.5 Hz in order to remove noise. A delay time of 0.1 second in weighing the urine was rectified, and the urine flow rate was determined by differentiating the value of discharge amount. After a value before twice administration of the drug was measured, the drugs (the compound A, distigmine, neostigigmine and bethanechol) were intravenously administrated. Saline in the bladder was extracted after 10 minutes of administration of the compound A, bethanechol and neostigigmine and after 30 minutes of administration of distigmine, and injection was started again to measure data. The drugs were dissolved with distilled water so that administration volume was 0.5 mL/kg. Parameters (bladder volume, the amount of urination, the maximum urine flow rate, the inner pressure of the bladder at the maximum urine flow, bladder compliance) below were measured. The bladder compliance was calculated from intersection point (the threshold of bladder volume, threshold pressure) which was obtained by determining regression line in the respective curves of the inner pressure of the bladder at collection of urine and urinary reflex. The change rate before and after administration of the drug was calculated for the respective parameters and the calibration of significant difference was carried out by a solvent administration group and Dunnett calibration (Table 6 and Table 7).

Hartley male guinea pig = assay: Acetylcholine inductive salivation in guinea pig (Example 5); format: in vivo
Method: (§1) A male SD rat (CLEA Japan Inc.) with a body weight of about 400 g or a Hartley male guinea pig with a body weight of 400 to 500 g (Japan SLC) were used. After urethane anesthesia, sanitary cotton preliminarily weighed was inserted in the mouth of the animal and acetylcholine was intravenously administrated. After 5 minutes, the sanitary cotton was taken out to be weighed and the amount of saliva secreted was measured. The drug was intravenously administrated at 10 min before the administration of acetylcholine. The effect of oxybutynin was analyzed by paired t calibration and the concomitant use effect of the compound A was analyzed by William calibration.

[3] = biological target: T1, butyrylcholine esterase of human serum origin (Homo sapiens, UniProt P06276); assay: biochemical; format: biochemical
T1 construct: butyrylcholine esterase of human serum origin; purchased Biogenesis, Poole, UK; host or cells: human serum
T1 sequence (P06276 29-602): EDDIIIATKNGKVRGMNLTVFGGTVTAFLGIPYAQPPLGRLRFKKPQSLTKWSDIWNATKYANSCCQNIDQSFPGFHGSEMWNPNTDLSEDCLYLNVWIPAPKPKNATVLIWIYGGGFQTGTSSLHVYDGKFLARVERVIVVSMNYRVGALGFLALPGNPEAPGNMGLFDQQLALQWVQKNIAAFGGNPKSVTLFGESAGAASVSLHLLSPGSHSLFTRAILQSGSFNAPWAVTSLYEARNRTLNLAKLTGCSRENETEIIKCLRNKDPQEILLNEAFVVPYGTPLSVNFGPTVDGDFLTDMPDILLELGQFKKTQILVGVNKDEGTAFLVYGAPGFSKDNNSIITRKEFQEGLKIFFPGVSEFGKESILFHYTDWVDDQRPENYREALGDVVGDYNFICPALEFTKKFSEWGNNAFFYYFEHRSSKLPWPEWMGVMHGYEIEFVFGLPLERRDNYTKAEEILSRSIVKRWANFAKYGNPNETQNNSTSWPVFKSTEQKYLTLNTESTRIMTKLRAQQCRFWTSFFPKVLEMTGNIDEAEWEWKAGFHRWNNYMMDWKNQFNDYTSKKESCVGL
Method: (§2) The AChE inhibitory activity and the BuChE inhibitory activity were determined by a thiocholine method (Ellman method) using acetylcholine esterase of human erythrocyte origin (Sigma, St. Louis, Mo., USA) and butyrylcholine esterase of human serum origin (Biogenesis, Poole, UK). Acetylcholine esterase or butyrylcholine esterase was diluted to a concentration of 0.2 IU/mL with 80 mM tris-HCL buffers (pH=7.4) containing 0.3% bovine serum albumin (BSA) to prepare an enzyme preparation. […] The stock solution was diluted at 3-fold common ratio with 10% DMSO and 80 mM tris-HCl buffers containing 0.3% BSA. On a 96 wells microplate, 20 μL of the drug solution with a given concentration, 30 μL of 80 mM tris-HCl buffers containing 0.3% BSA and 50 μL of the enzyme preparation were distributed, and incubated at room temperature for 1 hour after shaking for 10 seconds. […] For the respective drugs, the test was repeated twice. The % of control of the increase in light absorption was calculated at each concentration with respect to the respective drugs. % of control=increase in light absorption of drug/increase in light absorption of control×100

bladder muscle = system: bladder muscle; set-up: species or system guinea pig
[4] = biological target: T2, acetylcholine esterase of human erythrocyte origin (Homo sapiens, UniProt P22303); assay: biochemical; format: biochemical
T2 construct: acetylcholine esterase of human erythrocyte origin; purchased Sigma, St. Louis, Mo., USA; host or cells: human erythrocytes
T2 sequence (P22303 32-617 isoform P22303-2 limits assumed): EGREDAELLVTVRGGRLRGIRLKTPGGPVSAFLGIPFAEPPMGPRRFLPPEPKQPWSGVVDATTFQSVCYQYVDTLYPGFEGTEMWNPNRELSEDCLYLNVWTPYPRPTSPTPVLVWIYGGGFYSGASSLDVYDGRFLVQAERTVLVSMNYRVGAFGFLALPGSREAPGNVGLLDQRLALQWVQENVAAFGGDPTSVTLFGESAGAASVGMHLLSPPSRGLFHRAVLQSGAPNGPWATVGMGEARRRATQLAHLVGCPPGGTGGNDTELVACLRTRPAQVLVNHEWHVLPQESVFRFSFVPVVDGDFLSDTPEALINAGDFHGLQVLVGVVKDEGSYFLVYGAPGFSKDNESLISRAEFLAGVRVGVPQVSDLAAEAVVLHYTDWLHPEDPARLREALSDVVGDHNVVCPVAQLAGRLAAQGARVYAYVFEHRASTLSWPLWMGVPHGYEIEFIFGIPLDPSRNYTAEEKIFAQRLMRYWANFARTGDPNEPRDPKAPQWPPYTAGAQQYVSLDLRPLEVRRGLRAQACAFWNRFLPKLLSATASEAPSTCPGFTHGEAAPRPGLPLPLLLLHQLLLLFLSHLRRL
Method: as §2

male SD rat = assay: Acetylcholine inductive salivation in rat (Example 5); format: in vivo; details: for Amount of saliva secreted: rat
Method: as §1

Butyrylcholine esterase = Butyrylcholine esterase (Rattus norvegicus, UniProt Q9JKC1); details: cited from earlier work
Butyrylcholine esterase, sequence (Q9JKC1 24-597): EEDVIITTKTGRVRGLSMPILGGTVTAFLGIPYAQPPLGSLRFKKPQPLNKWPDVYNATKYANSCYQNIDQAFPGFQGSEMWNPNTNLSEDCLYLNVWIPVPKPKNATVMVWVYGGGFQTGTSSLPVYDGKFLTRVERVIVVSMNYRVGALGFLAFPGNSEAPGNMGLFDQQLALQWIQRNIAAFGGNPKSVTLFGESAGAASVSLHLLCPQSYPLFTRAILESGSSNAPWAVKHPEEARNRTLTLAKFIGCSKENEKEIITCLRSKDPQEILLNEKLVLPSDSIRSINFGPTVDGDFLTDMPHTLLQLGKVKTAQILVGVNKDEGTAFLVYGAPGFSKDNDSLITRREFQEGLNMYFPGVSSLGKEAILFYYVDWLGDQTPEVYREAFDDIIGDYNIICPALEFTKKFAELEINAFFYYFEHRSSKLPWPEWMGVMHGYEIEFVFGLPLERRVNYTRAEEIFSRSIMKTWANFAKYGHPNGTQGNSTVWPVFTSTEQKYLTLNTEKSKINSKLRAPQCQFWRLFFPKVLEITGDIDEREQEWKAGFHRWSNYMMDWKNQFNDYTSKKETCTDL

In the case of `O=C(CCC1CCN(Cc2cccc(F)c2)CC1)c1cc2c3c(c1)CCN3C(=O)CC2` [Compound A, 8-[3-[1-[(3-fluorophenyl)methyl]-4-piperidinyl]-1-oxopropyl]-1,2,5,6-tetrahydro-4H-pyrrolo[3,2,1-ij]quinolin-4-one], the “Bladder volume, proportion for value before administration (%)” value (“Bladder volume, proportion … (%)” below) ([1]; Compound A 0.003 mg/kg) is reported as 21.07 ± 4.65%, the “Maximum urine flow rate, proportion for value before administration (%)” value (from here on “Maximum urine flow rate, proportion … (%)”) ([1]; Compound A 0.003 mg/kg) is reported as −34.88 ± 8.22% and the “Urination efficiency, proportion for value before administration (%)” value ([1]; Compound A 0.003 mg/kg) is reported as −61.67 ± 7.22%. For the same molecule, the “Bladder volume, proportion … (%)” value ([1]; Compound A 0.01 mg/kg) was 24.73 ± 7.05%, the “Maximum urine flow rate, proportion … (%)” value ([1]; Compound A 0.01 mg/kg) was −9.04 ± 5.94 % and the “Urination efficiency, proportion for value before administration (%)” value ([1]; Compound A 0.01 mg/kg) was −30.23 ± 10.48 %. For the same molecule, the “action on bladder volume, maximum urine flow rate and urination efficiency” value ([1]; oxybutynin 1 mg/kg, compound A 0.003, 0.01 mg/kg with oxybutynin) was “acted antagonistically against the lowering of the maximum urine flow rate and urination efficiency but did not influence the increase of bladder volume”, the “Amount of urination, proportion for value before administration (%)” value (“Amount of urination, proportion … (%)” below) ([2]; 0.003 mg/kg) was 150.2 ± 10.0 % and the “At maximum urine flow rate Inner pressure of bladder, proportion for value before administration (%)” value (“At maximum urine flow rate Inner pressure … (%)” for short) ([2]; 0.003 mg/kg) was 117.5 ± 6.2%. The “Maximum urine flow rate, proportion … (%)” value ([2]; 0.003 mg/kg) was 112.1 ± 9.7 %, the “Bladder compliance, proportion for value before administration (%)” value (from here on “Bladder compliance, proportion … (%)”) ([2]; 0.003 mg/kg) was 75.2 ± 4.8% and the “Bladder volume, proportion … (%)” value ([2]; 0.003 mg/kg) was 94.6 ± 5.8%. For the same molecule, the “Amount of urination, proportion … (%)” value ([2]; 0.01 mg/kg) was 165.2 ± 18.2 %, the “At maximum urine flow rate Inner pressure … (%)” value ([2]; 0.01 mg/kg) was 110.9 ± 6.0% and the “Maximum urine flow rate, proportion … (%)” value ([2]; 0.01 mg/kg) was 124.4 ± 10.3 %. The “Bladder compliance, proportion … (%)” value ([2]; 0.01 mg/kg) was 82.6 ± 2.6%, the “Bladder volume, proportion … (%)” value ([2]; 0.01 mg/kg) was 101.7 ± 5.0% and the “Amount of urination, proportion … (%)” value ([2]; 0.03 mg/kg) was 164.0 ± 13.4 %. For the same molecule, the “At maximum urine flow rate Inner pressure … (%)” value ([2]; 0.03 mg/kg) was 116.9 ± 8.4%, the “Maximum urine flow rate, proportion … (%)” value ([2]; 0.03 mg/kg) was 133.5 ± 15.3 % and the “Bladder compliance, proportion … (%)” value ([2]; 0.03 mg/kg) was 95.9 ± 18.0%. For the same molecule, the “Bladder volume, proportion … (%)” value ([2]; 0.03 mg/kg) was 117.2 ± 9.0 %, the “change of the parameters at urination and at collection of urine (text)” value ([2]; intravenous administration) was “increased significantly the amount of urination and the maximum urine flow rate at 0.003 mg/kg or more; also recorded: the increase of the bladder volume was confirmed at 0.03 mg/kg, and did not influence the bladder compliance” and the “Amount of saliva secreted” value (Hartley male guinea pig; Compound A 0.003 mg/kg + oxybutynin 1 mg/kg + acetylcholine 1 mg/kg) was 0.17 ± 0.03 g. The “Amount of saliva secreted” value (Hartley male guinea pig; Compound A 0.010 mg/kg + oxybutynin 1 mg/kg + acetylcholine 1 mg/kg) was 0.27 ± 0.02 g, the “inhibitory activity for human butyrylcholine esterase” value [3] was “did not show inhibitory activity for human butyrylcholine esterase up to 10^−5 M” and the IC50 ([3]; mean value of twice tests, read-out: Butyrylcholine esterase IC50) was > 10000 nM. For the same molecule, the “Tension (%)” value (bladder muscle; 0.003 μM, 30 minutes, change of basic tension, 100 mM KCl contraction = 100%) was −0.55 ± 0.60%, the “Tension (%)” value (bladder muscle; 0.01 μM, 30 minutes, change of basic tension, 100 mM KCl contraction = 100%) was −0.26 ± 0.38% and the “Tension (%)” value (bladder muscle; 0.03 μM, 30 minutes, change of basic tension, 100 mM KCl contraction = 100%) was 0.13 ± 0.80%. The “Tension (%)” value (bladder muscle; 0.1 μM, 30 minutes, change of basic tension, 100 mM KCl contraction = 100%) was −0.74 ± 0.60%, the “Tension (%)” value (bladder muscle; Table 5: Compound A 0.1 μM with iso-OMPA 10 μM) was 1.96 ± 0.87 % and the “Tension (%)” value (bladder muscle; Table 5: Compound A 0.1 μM with iso-OMPA 100 μM) was 5.43 ± 1.17 %. For the same molecule, the “Tension (%)” value (bladder muscle; Table 5: Compound A 0.1 μM, iso-OMPA 0 μM) was −0.47 ± 0.17%, the “effect on basic tension” value (bladder muscle; compound A used in combination with iso-OMPA) was “significant increase in the basic tension was confirmed” and the “effect on basic tension” value (bladder muscle; drug alone) was “did not influence the basic tension”. The “Acetylcholine esterase selective inhibitory activity” value [4] was ≥ 6700 fold, the “inhibition of the activity of human acetylcholine esterase” value [4] was “inhibited the activity of human acetylcholine esterase” and the Selectivity b/a ([4]; BuChE IC50/AChE IC50 (Table 2)) was >6700. The IC50 ([4]; mean value of twice tests, read-out: Acetylcholine esterase IC50) was 1.5 nM, the “action on acetylcholine-induced secretion of saliva” value (male SD rat; rat and guinea pig (Tables 9 and 10)) was “significantly antagonized” and the “Amount of saliva secreted” value (male SD rat; Compound A 0.001 mg/kg + oxybutynin 0.1 mg/kg + acetylcholine 1 mg/kg) was 0.22 ± 0.02 g. The “Amount of saliva secreted” value (male SD rat; Compound A 0.003 mg/kg + oxybutynin 0.1 mg/kg + acetylcholine 1 mg/kg) was 0.26 ± 0.02 g and the “Amount of saliva secreted” value (male SD rat; Compound A 0.01 mg/kg + oxybutynin 0.1 mg/kg + acetylcholine 1 mg/kg) was 0.49 ± 0.03 g.
For `CNC(=O)Oc1ccc2c(c1)[C@]1(C)CCN(C)[C@@H]1N2C` [Physostigmine], the IC50 (Butyrylcholine esterase; Literature 4, read-out: Butyrylcholine esterase inhibitory activity (IC50)) is given as 16 nM and the IC50 (Butyrylcholine esterase; Literature 6, read-out: Butyrylcholine esterase inhibitory activity (IC50)) is given as 15 nM.
